This note sets out measurements from patent publication US7960349B2 (Bristol-Myers Squibb Company, priority 2006, dated 2011).

The target of data set [1] is T1, Mouse GLP-1 Receptor (Mus musculus, UniProt O35659).
T1 construct: expressed in transfected cells; host or cells: CHO cells
T1 sequence (O35659 22-463): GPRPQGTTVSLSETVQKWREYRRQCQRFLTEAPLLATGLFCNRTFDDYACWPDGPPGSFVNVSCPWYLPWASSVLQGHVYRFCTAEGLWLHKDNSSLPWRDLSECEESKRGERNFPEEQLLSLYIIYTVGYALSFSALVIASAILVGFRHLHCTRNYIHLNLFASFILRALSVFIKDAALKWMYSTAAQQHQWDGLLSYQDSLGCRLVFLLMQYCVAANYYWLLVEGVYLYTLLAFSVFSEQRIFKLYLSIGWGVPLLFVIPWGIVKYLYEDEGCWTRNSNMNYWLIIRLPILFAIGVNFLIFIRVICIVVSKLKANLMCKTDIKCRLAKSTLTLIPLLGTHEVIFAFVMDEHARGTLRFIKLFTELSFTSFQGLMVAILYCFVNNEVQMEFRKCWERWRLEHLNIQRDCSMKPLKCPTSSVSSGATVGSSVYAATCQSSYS
The data set can be described thus: Stimulation of cAMP synthesis in CHO cells expressing mouse GLP-1 receptor. In kind it is cell-based. The method, then: (§1) CHO-GLP-1R-19 cells (20,000 in 100 μl of media) were plated into each well of a 96-well tissue culture microtiter plate and incubated overnight in a 5% CO2 atmosphere at 37° C. On the day of the assay, cells were washed once with 100 μl of phosphate-buffered saline (PBS). A Biomek 2000 was used to serially dilute all peptides prior to beginning the assay. Serial dilutions were carried out in 100% DMSO.
(§2) 50 μl of each cAMP standard was added by hand and 70 μl of mix reagent (Amersham cAMP SPA kit) was added using the multidrop. […] This standard curve was used to convert CPM to pmol of cAMP.
(§3) Cell plates and peptide plates were loaded onto the Platemate. The media was aspirated from the wells and discarded. 100 uL per well of the peptide/buffer mixture were then added from the peptide plates to initiate the assay. After 30 min. of incubation the peptide/buffer was removed and 50 uL of the lysis reagent 1 solution was added per well. The plate was kept for one hour at RT or overnight if refrigerated and sealed.
(§4) Dose dependence for Compounds was determined at half-log concentrations in duplicate. […] A standard curve was determined using known amounts of cyclic AMP. […] The data were analyzed by nonlinear regression curve fitting (4 parameter sigmoidal dose-response curve) to determine the EC50 of the compounds.

Data set [2] is described as follows: Dog pharmacokinetic study. In kind it is in vivo. The conditions noted are these: for Vd: read-out: Vss; for half-life: read-out: t½ (converted).
The nature of data set [3]: Exposure during ipGTT in ob/ob mice. The following applies: sc injection. In kind it is in vivo, mouse. As to the method:
(§5) Peptides were dissolved in an appropriate vehicle at a concentration in nmol/ml equivalent to the dose that was to be administered in nmol/kg so that each mouse would receive the same volume/weight of dosing solution. Male C57BL/6-ob/ob mice (10 weeks old) were randomized into groups of 6 mice per group based on fed plasma glucose and body weight. After an overnight fast, mice were weighed and placed in the experimental lab. After 30 min in the environment, the mice were bled via tail tip at −30 min and immediately injected subcutaneously (sc) with vehicle or the peptide dissolved in vehicle (0.1 ml solution/100 g body weight). At time 0 the mice were bled and then injected intraperitoneally with 50% glucose (2 g/kg) to initiate the intraperitoneal glucose tolerance test (ipGTT). The mice were bled 30, 60, 120 and 180 min after the glucose injection. Blood samples were drawn into potassium EDTA, placed on ice during the study and subsequently centrifuged for 10 min at 3000 rpm at 4° C. Plasma samples were diluted 11-fold for glucose analysis in the Cobas System. Another 5 μl plasma sample was diluted 5-fold with 20 μl of Sample Diluent (Insulin ELISA assay kit, Crystal Chem. Inc.) and stored at −20° C. for subsequent analysis using the Ultra Sensitive Mouse Insulin ELISA kit (Crystal Chem Inc.).

Data set [4] concerns the target T2, Human GLP-1 Receptor (Homo sapiens, UniProt P43220).
T2 construct: Full-length human glucagon-like peptide 1 receptor was stably expressed in CHO-K1 cells; expressed in transfected cells; host or cells: CHO-K1 (clone CHO-GLP1R-19)
The data set can be described thus: Cyclic AMP determination in CHO cells expressing human GLP-1 receptor. It counts as cell-based. As to the method:
as §1, §2, §3, §4

The subject of data set [5] is ob/ob mice. Kind of data set: Intraperitoneal glucose tolerance test (ipGTT) in ob/ob mice after sc injection. In kind it is in vivo, mouse. The conditions noted are these: for Potency in ob/ob mice ED50: sc injection, plasma glucose AUC in ipGTT; for effect on postprandial plasma glucose / effect on postprandial plasma insulin: sc; for effect on postprandial plasma glucose: 0 to 180 or 210 min; for Potency in ob/ob mice: % AUC Reduction in Plasma Glucose in an IP Glucose Tolerance Test after SC Injection of Compound: relative to vehicle-treated group. The method, then:
as §5

Where [6] appears, read: dog, plasma, 67 ug/kg, male beagle dogs, intravenous 67 μg/kg.
Setting [7] is: vehicle 0.2 M Tris buffer (pH 8.0).
[8] abbreviates: dog, plasma, sc, 67 ug/kg, male beagle dogs, subcutaneous 67 μg/kg.
Where [9] appears, read: vehicle propylene glycol/pH 7.4 phosphate buffer (1:1).

Structures are written as SMILES. Where “and” joins values, the source holds several entries; their conditions need not be identical. Equal entries are not always repeated. Where two headings read alike, the source gives them in different places. Where a SMILES comes first, the peptide text is derived from it. [ ]: non-standard residue; d: D form. The star is where a group is joined. ξ: configuration not given here. Ala(6-(2-MePh)pyridin-3-yl) = Cc1ccccc1-c1ccc(C[C@H](N)C(=O)O)cn1; Phe(4-(2-Et-4-HO-Ph)) = CCc1cc(O)ccc1-c1ccc(C[C@H](N)C(=O)O)cc1; Bip(2'-Et-4'-OMe) = CCc1cc(OC)ccc1-c1ccc(C[C@H](N)C(=O)O)cc1; Lactoyl(3-(imidazol-4-yl)) = O=C([C@@H](O)Cc1c[nH]cn1)*; Bip(2'-Me) = Cc1ccccc1-c1ccc(C[C@H](N)C(=O)O)cc1; ξαMePhe(2-F) = CC(N)(Cc1ccccc1F)C(=O)O; Thr(3ξ) = CC(O)[C@H](N)C(=O)O; ξαMeP = CC1(C(=O)O)CCCN1; Aib = CC(C)(N)C(=O)O; Moc = COC(=O)*

T2 sequence (P43220 24-463): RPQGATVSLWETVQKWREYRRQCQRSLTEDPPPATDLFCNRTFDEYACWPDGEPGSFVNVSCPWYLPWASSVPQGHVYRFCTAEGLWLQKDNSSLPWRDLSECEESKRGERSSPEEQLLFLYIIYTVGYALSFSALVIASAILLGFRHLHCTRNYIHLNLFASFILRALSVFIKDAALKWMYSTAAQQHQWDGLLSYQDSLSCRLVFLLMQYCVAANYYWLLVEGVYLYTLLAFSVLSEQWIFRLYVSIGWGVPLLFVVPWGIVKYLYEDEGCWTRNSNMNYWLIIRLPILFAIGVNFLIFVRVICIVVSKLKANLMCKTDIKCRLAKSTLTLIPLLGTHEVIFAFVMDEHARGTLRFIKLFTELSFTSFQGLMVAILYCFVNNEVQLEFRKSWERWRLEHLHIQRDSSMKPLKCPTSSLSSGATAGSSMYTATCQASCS

For the molecule `CCc1cc(O)ccc1-c1ccc(C[C@H](NC(=O)[C@H](CC(=O)O)NC(=O)[C@H](CO)NC(=O)[C@@H](NC(=O)C(C)(Cc2ccccc2F)NC(=O)[C@@H](NC(=O)CNC(=O)[C@H](CCC(=O)O)NC(=O)C2(C)CCCN2C(=O)[C@H](Cc2c[nH]cn2)NC(=O)OC)[C@@H](C)O)[C@@H](C)O)C(=O)N[C@@H](Cc2ccc(-c3ccccc3C)nc2)C(N)=O)cc1` (stereo partly shown) [SEQ ID NO: 158] (Moc-H[ξαMeP]EGT[ξαMePhe(2-F)]TSD[Phe(4-(2-Et-4-HO-Ph))][Ala(6-(2-MePh)pyridin-3-yl)]-NH2), the “Mean Hill” value in data set [1] and in data set [4] (human GLP-1 receptor) was 1.5 each time. Besides, the Emax is 101 ± 7.2% in data set [1] (CHO, percent of maximal GLP-1 stimulated activity) and 101 ± 6.7% in data set [4] (CHO, percent of maximal GLP-1 stimulated activity, human GLP-1 receptor). Moreover, the Vd in data set [2] (setting [6]) was found to be 0.15 ± 0.02 L/kg. For the same molecule, in data set [2] (setting [7]), the “Exposure in dogs (sc@67 μg/kg)” value worked out at 1467 nM·h. In addition, the “Exposure/dose during ipGTT in ob/ob mice” value in data set [3] came to 11 nM * h/nmol/kg. Besides, in data set [4], the midpoint of the response, the EC50, lay at 0.018 nM. Besides, in data set [5] (10 nmol/kg sc, ipGTT ob/ob mice), the “plasma glucose AUC decreased” value came to 66%. Moreover, the “Potency in ob/ob mice ED50” value in data set [5] was “ED50 = 2 nmoles/kg”. For the same molecule, in data set [5] (ipGTT ob/ob mice), the “effect on postprandial plasma glucose” value was “statistically significant decrease”.
Take `CCc1cc(OC)ccc1-c1ccc(C[C@H](NC(=O)[C@H](CC(=O)O)NC(=O)[C@H](CO)NC(=O)[C@@H](NC(=O)C(C)(Cc2ccccc2F)NC(=O)[C@@H](NC(=O)CNC(=O)[C@H](CCC(=O)O)NC(=O)C(C)(C)NC(=O)[C@@H](N)Cc2c[nH]cn2)C(C)O)C(C)O)C(=O)N[C@@H](Cc2ccc(-c3ccccc3C)nc2)C(N)=O)cc1` (stereo partly shown) [SEQ ID NO: 9] (H-H[Aib]EG[Thr(3ξ)][ξαMePhe(2-F)][Thr(3ξ)]SD[Bip(2'-Et-4'-OMe)][Ala(6-(2-MePh)pyridin-3-yl)]-NH2): in data set [2] (setting [6]), the AUC stood at 529 ± 125 nM·h, the MRT stood at 2.4 ± 0.5 h, the Vd was determined as 0.21 ± 0.07 L/kg and the half-life is 7.1 ± 2.1 h. Besides, the clearance in data set [2] (dog, plasma, 67 ug/kg, male beagle dogs, intravenous 67 μg/kg, read-out: CLp) came to 0.084 ± 0.024 L/h/kg. Also, in data set [2] (setting [8]), the AUC amounted to 452 ± 153 nM·h, the Cmax was 0.116 ± 0.034 µM, the MRT amounted to 3.6 ± 1 h and the Tmax is 1.1 ± 0.6 h. Moreover, in data set [2] (setting [8]), the half-life was 2.6 ± 1.2 h. The bioavailability in data set [2] (dog, plasma, male beagle dogs, subcutaneous 67 μg/kg vs intravenous) amounted to 93 ± 22%. The “Exposure in dogs (sc@67 μg/kg)” value in data set [2] (setting [7]) was determined as 452 nM·h. Further, the “Exposure in dogs (sc@67 μg/kg)” value in data set [2] (setting [9]) was found to be 1230 nM·h. Moreover, the “Exposure/dose during ipGTT in ob/ob mice” value in data set [3] is given as 18 nM * h/nmol/kg. The “Potency in ob/ob mice: % AUC Reduction in Plasma Glucose in an IP Glucose Tolerance Test after SC Injection of Compound” value in data set [5] (10 nmol/kg sc) is −68% (p < 0.0001). Also, in data set [5] (30 nmol/kg sc, ipGTT ob/ob mice), the “maximum increase in postprandial plasma insulin AUC” value is 187.7%. The “plasma glucose AUC decreased” value in data set [5] (100 nmol/kg sc, ipGTT ob/ob mice) amounted to 85.8%. Further, the “Potency in ob/ob mice ED50” value in data set [5] turned out to be 5 nmol/kg. For the same molecule, in data set [5] (listed as 9), the “Potency in ob/ob mice ED50” value was “ED50 = 5 nmoles/kg”. Also, in data set [5] (ipGTT ob/ob mice), the “effect on postprandial plasma insulin” value is “significant increase” and the “effect on postprandial plasma glucose” value was “statistically significant decrease”.
Regarding `CCc1cc(OC)ccc1-c1ccc(C[C@H](NC(=O)[C@H](CC(=O)O)NC(=O)[C@H](Cc2c[nH]cn2)NC(=O)[C@@H](NC(=O)C(C)(Cc2ccccc2F)NC(=O)[C@@H](NC(=O)CNC(=O)[C@H](CCC(=O)O)NC(=O)C2(C)CCCN2C(=O)[C@@H](O)Cc2c[nH]cn2)[C@@H](C)O)[C@@H](C)O)C(=O)N[C@@H](Cc2ccc(-c3ccccc3C)nc2)C(N)=O)cc1` (stereo partly shown) [SEQ ID NO: 151] ({Lactoyl(3-(imidazol-4-yl))}-[ξαMeP]EGT[ξαMePhe(2-F)]THD[Bip(2'-Et-4'-OMe)][Ala(6-(2-MePh)pyridin-3-yl)]-NH2), the “Exposure in dogs (sc@67 μg/kg)” value in data set [2] (setting [7]) came to 1566 nM·h. For the same molecule, the “Exposure/dose during ipGTT in ob/ob mice” value in data set [3] turned out to be 16 nM * h/nmol/kg. For the same molecule, the “plasma glucose AUC decreased” value in data set [5] (3 nmol/kg sc, ipGTT ob/ob mice) stood at 67%. In addition, the “Potency in ob/ob mice ED50” value in data set [5] is 1 nmol/kg and 2 nmol/kg; in data set [5] (listed as 151), “ED50 = 1 nmoles/kg”. The “effect on postprandial plasma glucose” value in data set [5] (ipGTT ob/ob mice) was “statistically significant decrease”.
As for `CCc1cc(OC)ccc1-c1ccc(C[C@H](NC(=O)[C@H](CC(=O)O)NC(=O)[C@H](CO)NC(=O)[C@@H](NC(=O)C(C)(Cc2ccccc2F)NC(=O)[C@@H](NC(=O)CNC(=O)[C@H](CCC(=O)O)NC(=O)C(C)(C)NC(=O)[C@@H](N)Cc2c[nH]cn2)C(C)O)C(C)O)C(=O)N[C@@H](Cc2ccc(-c3ccccc3C)cc2)C(N)=O)cc1` (stereo partly shown) [Compound I, reference compound] (H-H[Aib]EG[Thr(3ξ)][ξαMePhe(2-F)][Thr(3ξ)]SD[Bip(2'-Et-4'-OMe)][Bip(2'-Me)]-NH2), the “Exposure in dogs (sc@67 μg/kg)” value in data set [2] (setting [9]) stood at 89 nM·h. In addition, the “Exposure/dose during ipGTT in ob/ob mice” value in data set [3] is on record as 22 nM * h/nmol/kg. In addition, the “Potency in ob/ob mice: % AUC Reduction in Plasma Glucose in an IP Glucose Tolerance Test after SC Injection of Compound” value in data set [5] (10 nmol/kg sc) is −15% (p = 0.247, NS). Besides, in data set [5] (ipGTT ob/ob mice), the “effect on postprandial plasma insulin” value is listed as “statistically significant dose-dependent increase” and the “effect on postprandial plasma glucose” value is reported as “decreasing in a dose-dependent manner”.

Usually Emax stands for the size of the effect at its maximum, as opposed to the concentration needed. As a reminder, the EC50 is the concentration giving half of the maximal effect. High values mean a need for much substance, low ones an effect from little substance. As usually defined, the AUC is the area under the concentration-time curve, a measure of exposure. A word on the MRT: it is a mean duration of stay, worked out from the concentration-time curve. By Cmax is commonly meant the peak of the concentration-time curve. For orientation: Tmax means the time at which the peak concentration occurs. Broadly, the bioavailability is the share of a dose that reaches the circulation, judged against a reference dose that is usually intravenous.
